From patent US9309242B2, “Substituted pyrido[2,3-b]pyrazines as FGFR kinase inhibitors” (priority 2011, dated 2016)
pIC50: −log10 of the molar value.

How the values were obtained:
[1] = test system: Ba/F3-FGFR1-transfected cells; experiment: Ba/F3-FGFR1 (plus IL3) cellular proliferation assay, counterscreen with 10 ng/ml murine IL3; assay type: cell-based; details: plus IL3 (10 ng/ml murine IL3, counterscreen); read-out: BAF3-FGFR1 (PLUS IL3) pIC50 (converted)
How it was run: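 Proliferation read-out: resazurin-based Alamar Blue fluorescence (540/590 nm) after 4 h, following 24 h compound treatment of 20000 Ba/F3-FGFR1 cells per well in 10% FBS RPMI at 37° C. IL3 counterscreen used the same protocol plus 10 ng/ml murine IL3.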

FGFR2 (h) = FGFR2 (h) (Homo sapiens, UniProt P21802); experiment: FGFR2 (enzymatic assay), TR-FRET; assay type: biochemical; details: enzymatic assay; read-out: FGFR 2 pIC50 (converted)
How it was run: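 hFGFR2 150 ng/ml; Btn-Flt3 500 nM; ATP 0.4 μM; 50 mM HEPES pH 7.5, 6 mM MnCl2, 1 mM DTT, 0.1 mM Na3VO4, 0.01% Triton-X-100; 1% DMSO final.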

[2] = test system: Ba/F3-FGFR3-transfected cells; experiment: Ba/F3-FGFR3 (plus IL3) cellular proliferation assay, counterscreen with 10 ng/ml murine IL3; assay type: cell-based; details: plus IL3 (10 ng/ml murine IL3, counterscreen); read-out: BAF3-FGFR3 (PLUS IL3) pIC50 (converted)
How it was run: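 With or without 10 ng/ml murine IL3, FGFR3-dependent Ba/F3 cells were treated 24 h with compound, then viability was gauged by Alamar Blue fluorescence after 4 h (ex 540/em 590 nm).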

FGFR4 (h) = FGFR4 (h) (Homo sapiens, UniProt P22455); experiment: FGFR4 (enzymatic assay), TR-FRET; assay type: biochemical; details: FGFR 4 pIC50, enzymatic assay
FGFR1 (h) = FGFR1 (h) (Homo sapiens, UniProt P11362); experiment: FGFR1 (enzymatic assay), TR-FRET; assay type: biochemical; details: read-out: FGFR 1 pIC50 (converted)
[3] = biological target: Ba/F3-FGFR4-transfected cells (Homo sapiens, UniProt P22455); experiment: Ba/F3-FGFR4 cellular proliferation assay, Alamar Blue; assay type: cell-based
How it was run: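 Fluorescence read-out (ex. 540 nm, em. 590 nm) of resazurin-based Alamar Blue after 4 h, following 24 h compound exposure of Ba/F3-FGFR4-transfected cells (20000/well) at 37° C, 5% CO2.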

FGFR3 (h) = FGFR3 (h) (Homo sapiens, UniProt P22607); experiment: FGFR3 (enzymatic assay), TR-FRET; assay type: biochemical; details: read-out: FGFR 3 pIC50 (converted)
Description: Time-Resolved Fluorescence Resonance Energy Transfer (TR-FRET) signal (ex340 nm.

KDR (h) = KDR (h) (Homo sapiens, UniProt P35968); experiment: KDR (VEGFR2) (enzymatic assay), TR-FRET; assay type: biochemical; details: read-out: VEGFR 2 (KDR) pIC50 (converted)
How it was run: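 3 μM ATP, 500 nM Btn-Flt3 substrate, 150 ng/ml kinase; HEPES pH 7.5 with MnCl2, DTT, vanadate, Triton; 1% DMSO. 120 min RT. Stop: EDTA + Eu-anti-P-Tyr + SA-XL-665, 60 min RT. Readout TR-FRET ex340/em620, 655 nm, RFU.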

[4] = biological target: T1, Ba/F3-KDR-transfected cells (Homo sapiens, UniProt P35968); experiment: Ba/F3-KDR (minus IL3) cellular proliferation assay, Alamar Blue; assay type: cell-based
T1 construct: BAF3-KDR (MIN IL3) pIC50; other: minus IL3
How it was run: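 Read-out: resazurin-based Alamar Blue fluorescence (ex. 540, em. 590 nm) after 4 h. Before that, cells were incubated with compound for 24 h at 37° C. The counterscreen ran identically but with IL3 supplemented.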

Sequence of FGFR2 (h) (P21802 22-821): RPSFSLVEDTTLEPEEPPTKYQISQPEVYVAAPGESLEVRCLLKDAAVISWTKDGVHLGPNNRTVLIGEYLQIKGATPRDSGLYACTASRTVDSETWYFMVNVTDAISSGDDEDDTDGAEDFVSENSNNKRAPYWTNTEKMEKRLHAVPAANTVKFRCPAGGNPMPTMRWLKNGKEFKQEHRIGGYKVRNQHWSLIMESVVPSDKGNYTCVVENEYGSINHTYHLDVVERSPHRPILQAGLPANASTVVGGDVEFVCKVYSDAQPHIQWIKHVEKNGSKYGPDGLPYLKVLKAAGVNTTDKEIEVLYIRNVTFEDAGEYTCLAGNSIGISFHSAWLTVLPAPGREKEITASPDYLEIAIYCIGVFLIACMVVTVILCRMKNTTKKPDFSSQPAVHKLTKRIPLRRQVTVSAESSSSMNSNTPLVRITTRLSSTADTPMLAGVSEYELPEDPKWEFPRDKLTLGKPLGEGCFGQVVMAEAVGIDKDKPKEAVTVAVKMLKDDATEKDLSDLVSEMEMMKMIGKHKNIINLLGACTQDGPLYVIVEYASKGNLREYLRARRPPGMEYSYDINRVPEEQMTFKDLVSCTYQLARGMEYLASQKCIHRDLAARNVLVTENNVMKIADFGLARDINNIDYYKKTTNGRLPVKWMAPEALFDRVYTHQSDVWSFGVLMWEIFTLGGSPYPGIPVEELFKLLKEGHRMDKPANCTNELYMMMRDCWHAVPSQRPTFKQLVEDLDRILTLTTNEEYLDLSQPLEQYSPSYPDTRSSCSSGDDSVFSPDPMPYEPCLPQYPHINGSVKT
Sequence of FGFR3 (h) (P22607 23-806): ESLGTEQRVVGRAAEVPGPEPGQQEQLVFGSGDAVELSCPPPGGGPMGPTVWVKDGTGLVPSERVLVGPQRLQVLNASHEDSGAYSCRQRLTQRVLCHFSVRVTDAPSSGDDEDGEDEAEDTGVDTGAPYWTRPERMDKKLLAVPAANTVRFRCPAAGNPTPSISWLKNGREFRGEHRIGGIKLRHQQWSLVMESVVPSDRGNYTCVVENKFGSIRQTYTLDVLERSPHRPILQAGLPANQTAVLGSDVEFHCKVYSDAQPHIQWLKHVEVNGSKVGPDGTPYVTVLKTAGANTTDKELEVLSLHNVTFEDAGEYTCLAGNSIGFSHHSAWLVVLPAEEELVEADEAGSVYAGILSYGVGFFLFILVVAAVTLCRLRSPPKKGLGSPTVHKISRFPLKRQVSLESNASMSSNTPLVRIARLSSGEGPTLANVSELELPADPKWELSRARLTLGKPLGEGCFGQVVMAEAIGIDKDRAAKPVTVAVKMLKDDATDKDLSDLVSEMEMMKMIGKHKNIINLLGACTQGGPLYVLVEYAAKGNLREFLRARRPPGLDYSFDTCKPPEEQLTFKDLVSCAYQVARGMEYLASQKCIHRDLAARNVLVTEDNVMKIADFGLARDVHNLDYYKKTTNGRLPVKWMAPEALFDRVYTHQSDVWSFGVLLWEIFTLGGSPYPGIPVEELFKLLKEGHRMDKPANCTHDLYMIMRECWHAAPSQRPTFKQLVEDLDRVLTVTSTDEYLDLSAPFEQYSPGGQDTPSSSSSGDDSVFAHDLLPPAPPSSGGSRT
Sequence of FGFR1 (h) (P11362 22-822): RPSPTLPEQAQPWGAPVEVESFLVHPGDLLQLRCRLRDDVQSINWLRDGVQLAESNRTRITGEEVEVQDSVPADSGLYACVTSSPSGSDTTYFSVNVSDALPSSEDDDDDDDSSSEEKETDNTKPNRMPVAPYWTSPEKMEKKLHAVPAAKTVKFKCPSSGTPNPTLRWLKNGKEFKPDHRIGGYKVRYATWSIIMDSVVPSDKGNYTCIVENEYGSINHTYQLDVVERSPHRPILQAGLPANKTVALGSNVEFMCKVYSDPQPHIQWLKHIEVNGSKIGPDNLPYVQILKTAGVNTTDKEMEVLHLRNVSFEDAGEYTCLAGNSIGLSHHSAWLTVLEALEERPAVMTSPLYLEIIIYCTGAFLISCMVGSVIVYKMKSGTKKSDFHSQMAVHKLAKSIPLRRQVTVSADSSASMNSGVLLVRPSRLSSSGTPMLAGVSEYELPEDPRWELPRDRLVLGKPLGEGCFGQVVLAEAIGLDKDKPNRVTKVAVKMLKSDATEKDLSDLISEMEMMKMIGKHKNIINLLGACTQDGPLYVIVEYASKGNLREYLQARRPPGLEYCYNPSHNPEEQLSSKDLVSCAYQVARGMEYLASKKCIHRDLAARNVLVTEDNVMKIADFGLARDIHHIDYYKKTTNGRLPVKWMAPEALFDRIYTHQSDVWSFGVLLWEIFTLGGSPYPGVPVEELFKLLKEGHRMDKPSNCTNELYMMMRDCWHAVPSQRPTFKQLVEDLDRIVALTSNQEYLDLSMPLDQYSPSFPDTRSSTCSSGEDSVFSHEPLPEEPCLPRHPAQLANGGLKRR
Sequence of Ba/F3-FGFR4-transfected cells (P22455 whole entry, change not shown): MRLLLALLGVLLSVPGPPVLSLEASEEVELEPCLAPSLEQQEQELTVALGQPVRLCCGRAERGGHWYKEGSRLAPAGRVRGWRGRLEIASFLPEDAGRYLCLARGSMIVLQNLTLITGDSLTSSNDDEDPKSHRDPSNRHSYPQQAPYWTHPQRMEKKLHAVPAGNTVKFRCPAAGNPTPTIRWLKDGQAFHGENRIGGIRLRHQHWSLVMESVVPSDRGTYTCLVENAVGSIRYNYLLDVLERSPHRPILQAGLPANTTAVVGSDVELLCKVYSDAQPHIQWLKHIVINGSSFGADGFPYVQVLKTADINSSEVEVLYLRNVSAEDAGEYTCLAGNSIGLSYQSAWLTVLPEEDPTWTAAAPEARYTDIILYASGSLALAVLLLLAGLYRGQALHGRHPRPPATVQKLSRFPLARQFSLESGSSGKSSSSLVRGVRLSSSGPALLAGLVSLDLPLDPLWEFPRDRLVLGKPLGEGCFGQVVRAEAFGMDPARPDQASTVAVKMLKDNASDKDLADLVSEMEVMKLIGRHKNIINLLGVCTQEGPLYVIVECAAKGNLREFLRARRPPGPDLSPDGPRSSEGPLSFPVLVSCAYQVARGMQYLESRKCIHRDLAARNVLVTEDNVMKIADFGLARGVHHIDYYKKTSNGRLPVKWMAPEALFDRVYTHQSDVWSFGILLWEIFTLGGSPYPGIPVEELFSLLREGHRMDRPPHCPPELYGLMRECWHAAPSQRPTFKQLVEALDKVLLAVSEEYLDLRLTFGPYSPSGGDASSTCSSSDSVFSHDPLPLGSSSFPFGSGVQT
Sequence of FGFR4 (h) (P22455 22-802): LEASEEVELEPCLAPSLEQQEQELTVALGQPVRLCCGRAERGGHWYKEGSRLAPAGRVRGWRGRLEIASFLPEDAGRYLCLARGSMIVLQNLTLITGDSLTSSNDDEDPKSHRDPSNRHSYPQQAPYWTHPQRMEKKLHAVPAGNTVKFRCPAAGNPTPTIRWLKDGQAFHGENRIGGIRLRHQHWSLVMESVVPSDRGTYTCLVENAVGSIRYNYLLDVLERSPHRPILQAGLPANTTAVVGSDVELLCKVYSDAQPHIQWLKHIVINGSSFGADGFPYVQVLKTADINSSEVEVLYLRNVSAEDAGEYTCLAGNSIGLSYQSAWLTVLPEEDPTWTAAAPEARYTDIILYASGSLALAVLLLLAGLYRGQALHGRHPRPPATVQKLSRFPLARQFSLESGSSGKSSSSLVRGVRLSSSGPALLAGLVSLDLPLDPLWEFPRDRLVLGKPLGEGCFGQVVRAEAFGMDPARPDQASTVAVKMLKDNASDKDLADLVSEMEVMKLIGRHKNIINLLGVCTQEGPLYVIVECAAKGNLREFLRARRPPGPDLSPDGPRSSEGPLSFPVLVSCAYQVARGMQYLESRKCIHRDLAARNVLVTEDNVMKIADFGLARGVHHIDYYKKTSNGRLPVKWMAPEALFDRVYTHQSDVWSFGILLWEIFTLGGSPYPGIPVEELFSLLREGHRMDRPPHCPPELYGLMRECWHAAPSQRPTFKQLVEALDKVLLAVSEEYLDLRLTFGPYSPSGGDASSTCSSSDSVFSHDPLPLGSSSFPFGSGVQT

Row | Structure (SMILES) | IC50 [1] [nM] | IC50 (FGFR2 (h)) [nM] | IC50 [2] [nM] | pIC50 (FGFR4 (h)) | IC50 (FGFR1 (h)) [nM] | BAF3-FGFR4 pIC50 [3] | IC50 (FGFR3 (h)) [nM] | IC50 (KDR (h)) [nM] | BAF3-KDR (MIN IL3) pIC50 [4]
1 | COCC(O)Cn1/c(=N/c2cc(OC)cc(OC)c2F)ccc2ncc(-c3cnn(C)c3)nc21 (single isomer, unassigned) [Compound 60] | > 10000 | 1 | > 10000 | 9.14 | 0.741 | 7.76 | 0.525 | 8.91 | 6.58
2 | COc1cc(OC)c(F)c(N(CC(O)COC(C)C)c2ccc3ncc(-c4cnn(CC(O)COC(C)C)c4)nc3n2)c1 (single isomer, unassigned) [Compound 252] | > 10000 | 5.37 | > 10000 | 8.29 | 1.95 | 6.95 | 4.07 | 49 | 5.67
3 | COc1cc(OC)c(F)c(N(C)c2ccc3ncc(-c4cnn(C)c4)nc3n2)c1F (single isomer, unassigned) [Compound 254] | > 10000 | 1.05 | > 10000 | 9.00 | 0.468 | 7.15 | 0.437 | 14.1 | 5.98
4 | COc1cc(OC)c(F)c(/N=c2\ccc3ncc(-c4cnn(C)c4)nc3n2C)c1F (single isomer, unassigned) [Compound 255] | > 10000 | 0.776 | > 10000 | 9.29 | 0.214 | 7.34 | 0.363 | 3.09 | 6.22
5 | COc1cc(OC)c(F)c(/N=c2\ccc3ncc(-c4cnn(C)c4)nc3n2CC2CC2)c1F (single isomer, unassigned) [Compound 267] | > 10000 | 4.27 | > 10000 | 8.83 | 0.977 | 7.55 | 2.4 | 12.6 | 6.37
6 | COc1cc(OC)c(F)c(N(CC2CC2)c2ccc3ncc(-c4cnn(C)c4)nc3n2)c1F (single isomer, unassigned) [Compound 268] | > 10000 | 2.82 | > 10000 | 8.59 | 0.912 | 6.90 | 1.86 | 12 | 5.55
7 | COc1cc(OC)c(F)c(N(CC(O)c2cnn(C)c2)c2ccc3ncc(-c4cnn(C)c4)nc3n2)c1 (stereo not drawn) [Compound 244] | > 10000 | 5.01 | > 10000 | 7.79 | 5.89 | 6.11 | 4.07 | 129 | 5.03
8 | COc1cc(OC)c(F)c(N(CC(C)(C)O)c2ccc3ncc(-c4cnn(C)c4)nc3n2)c1 [Compound 245] | > 10000 | 4.47 | > 10000 | 7.80 | 3.63 | 6.34 | 3.31 | 60.3 | 5.33
9 | COc1cc(/N=c2\ccc3ncc(-c4cnn(C)c4)nc3n2CC(C)(C)O)c(F)c(OC)c1 [Compound 246] | > 10000 | 1.51 | > 10000 | 8.68 | 0.603 | 6.71 | 0.794 | 7.59 | 5.83
10 | COc1cc(/N=c2\ccc3ncc(-c4cnn(C)c4)nc3n2CC2CCC(=O)N2CCO)c(F)c(OC)c1 (stereo not drawn) [Compound 247] | > 10000 | 2.34 | > 10000 | 8.74 | 0.603 | 6.87 | 1.32 | 12 | 5.63
11 | COc1cc(OC)c(F)c(N(CC(=O)NC(C)C)c2ccc3ncc(-c4cnn(C)c4)nc3n2)c1 [Compound 249] | > 10000 | 4.79 | > 10000 | 7.48 | 3.89 | 6.00 | 7.59 | 224 | 5.09
12 | COc1cc(OC)cc(N(CC(O)COC(C)C)c2ccc3ncc(-c4cnn(CC(O)COC(C)C)c4)nc3n2)c1 (stereo not drawn) [Compound 250] | > 10000 | 6.03 | > 10000 | 8.06 | 4.17 | 6.37 | 4.79 | 120 | 5.16
13 | COc1cc(OC)cc(N(Cc2c[nH]nn2)c2ccc3ncc(-c4cnn(C)c4)nc3n2)c1 [Compound 251] | > 10000 | 1.41 | > 10000 | 8.57 | 1.32 | 6.57 | 0.661 | 26.3 | 5.53
14 | COc1cc(OC)c(F)c(N(Cc2ncc[nH]2)c2ccc3ncc(-c4cnn(C5COC5)c4)nc3n2)c1 [Compound 253] | > 10000 | 1.82 | > 10000 | 8.72 | 0.603 | 7.90 | 1.35 | 12 | 6.32
15 | CCn1/c(=N/c2c(F)c(OC)cc(OC)c2F)ccc2ncc(-c3cnn(C)c3)nc21 [Compound 257] | > 10000 | 1.35 | > 10000 | 9.34 | 0.331 | 7.98 | 0.692 | 3.16 | 6.80
